Experimental data taken from patent US8927587B2, “Chemical compounds” (Pfizer Limited, priority 2012, dated 2015).

What follows are compounds tested against T1, hNav1.8 (Homo sapiens, UniProt Q9Y5Y9) (assay: hNav1.8 whole-cell patch-clamp electrophysiology (conventional or PatchXpress 7000) in stably transfected HEK cells). Details: estimated IC50 calculated from single point % inhibition; HEK cells expressing hNav1.8; 8 sec prepulse to V1/2, 20 msec step to 0 mV; average of replicates; read-out: Nav1.8 EIC50.
T1 construct: host or cells: HEK cells, stably transfected
T1 sequence (Q9Y5Y9 whole entry): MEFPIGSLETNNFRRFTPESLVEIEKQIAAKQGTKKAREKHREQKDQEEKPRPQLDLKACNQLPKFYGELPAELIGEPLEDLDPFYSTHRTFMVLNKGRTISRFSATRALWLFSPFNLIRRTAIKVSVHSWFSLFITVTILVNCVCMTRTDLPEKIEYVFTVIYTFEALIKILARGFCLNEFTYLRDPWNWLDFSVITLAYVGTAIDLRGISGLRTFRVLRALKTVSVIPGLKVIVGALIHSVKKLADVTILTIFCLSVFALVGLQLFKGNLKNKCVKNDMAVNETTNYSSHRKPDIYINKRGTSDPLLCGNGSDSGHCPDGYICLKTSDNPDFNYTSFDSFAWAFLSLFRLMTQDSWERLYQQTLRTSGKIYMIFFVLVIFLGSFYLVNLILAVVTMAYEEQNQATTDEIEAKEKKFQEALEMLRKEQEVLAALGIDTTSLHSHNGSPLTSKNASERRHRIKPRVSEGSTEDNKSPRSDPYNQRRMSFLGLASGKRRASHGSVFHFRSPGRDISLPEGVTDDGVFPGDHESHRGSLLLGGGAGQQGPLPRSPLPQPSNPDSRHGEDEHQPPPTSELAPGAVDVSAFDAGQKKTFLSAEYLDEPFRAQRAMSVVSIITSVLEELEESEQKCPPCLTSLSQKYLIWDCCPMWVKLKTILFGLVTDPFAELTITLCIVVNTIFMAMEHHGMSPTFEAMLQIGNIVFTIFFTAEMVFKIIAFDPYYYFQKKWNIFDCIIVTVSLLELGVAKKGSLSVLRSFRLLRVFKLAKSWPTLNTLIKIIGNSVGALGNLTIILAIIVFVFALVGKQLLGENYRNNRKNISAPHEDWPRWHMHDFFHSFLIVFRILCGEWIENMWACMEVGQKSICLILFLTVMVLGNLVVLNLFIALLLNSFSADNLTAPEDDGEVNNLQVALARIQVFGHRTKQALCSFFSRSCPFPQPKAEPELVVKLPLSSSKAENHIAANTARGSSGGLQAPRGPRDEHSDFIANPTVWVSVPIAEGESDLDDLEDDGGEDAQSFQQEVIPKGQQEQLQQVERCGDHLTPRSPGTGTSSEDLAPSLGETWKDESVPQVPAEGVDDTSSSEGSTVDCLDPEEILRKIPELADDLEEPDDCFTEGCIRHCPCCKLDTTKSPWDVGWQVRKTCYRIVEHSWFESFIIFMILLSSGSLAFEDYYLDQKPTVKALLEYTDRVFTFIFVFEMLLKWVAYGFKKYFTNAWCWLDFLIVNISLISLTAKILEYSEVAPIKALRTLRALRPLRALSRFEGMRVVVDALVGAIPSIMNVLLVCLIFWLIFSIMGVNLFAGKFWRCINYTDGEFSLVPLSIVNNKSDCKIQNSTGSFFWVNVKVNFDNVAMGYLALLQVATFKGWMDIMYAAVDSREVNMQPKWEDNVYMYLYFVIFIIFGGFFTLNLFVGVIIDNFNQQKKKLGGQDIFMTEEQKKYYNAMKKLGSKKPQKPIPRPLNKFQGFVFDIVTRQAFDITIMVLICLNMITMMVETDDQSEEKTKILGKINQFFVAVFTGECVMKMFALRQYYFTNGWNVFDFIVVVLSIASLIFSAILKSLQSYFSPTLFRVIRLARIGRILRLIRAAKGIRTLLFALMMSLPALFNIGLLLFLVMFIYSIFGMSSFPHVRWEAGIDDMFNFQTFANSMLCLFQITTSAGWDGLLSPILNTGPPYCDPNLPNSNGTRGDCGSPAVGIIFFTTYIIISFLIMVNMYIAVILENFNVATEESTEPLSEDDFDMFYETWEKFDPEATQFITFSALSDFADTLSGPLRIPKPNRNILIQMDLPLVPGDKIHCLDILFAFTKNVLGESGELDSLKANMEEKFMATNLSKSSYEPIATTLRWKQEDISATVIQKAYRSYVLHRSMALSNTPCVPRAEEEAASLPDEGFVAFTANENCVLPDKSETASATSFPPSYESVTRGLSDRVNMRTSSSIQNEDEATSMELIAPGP
Format: cell-based
From the text: The ability of the benzimidazole derivatives of the formula (I) to inhibit the Nav1.8 channel may be measured using the assay described below.
HEK cells stably transfected with hNav1.8, purchased from Millipore (Millipore Corp., Billerica, Mass. 01821), were maintained according to manufacturer's instructions. For electrophysiological studies, cells were removed from the culture flask by brief trypsinization and re-plated at low density onto glass cover slips. Cells were typically used for electrophysiological experiments within 24 to 72 h after plating.
Cover slips containing HEK cells expressing hNav1.8 were placed in a bath on the stage of an inverted microscope and perfused (approximately 1 ml/min) with extracellular solution of the following composition: 138 mM NaCl, 2 mM CaCl2, 5.4 mM KCl, 1 mM MgCl2, 10 mM glucose, and 10 mM HEPES, pH 7.4, with NaOH. […] The osmolarity of the extracellular and intracellular solutions was 300 mOsm/kg and 295 mOsm/kg, respectively. All recordings were made at room temperature (22-24° C.) using AXOPATCH 200B amplifiers and PCLAMP software (Axon Instruments, Burlingame, Calif.).
hNav1.8 currents in HEK cells were measured using the whole-cell configuration of the patch-clamp technique (Hamill et al., 1981). Uncompensated series resistance was typically 2 to 5 mega ohms and >85% series resistance compensation was routinely achieved. As a result, voltage errors were negligible and no correction was applied. Current records were acquired at 20 to 50 KHz and filtered at 5 to 10 KHz.
HEK cells stably transfected with hNav1.8 were viewed under Hoffman contrast optics and placed in front of an array of flow pipes emitting either control or compound-containing extracellular solutions. All compounds were dissolved in dimethyl sulfoxide to make 10 mM stock solutions, which were then diluted into extracellular solution to attain the final concentrations desired.
The voltage-dependence of inactivation was determined by applying a series of depolarizing prepulses (8 sec long in 10 mV increments) from a negative holding potential. The voltage was then immediately stepped to 0 mV to assess the magnitude of the sodium current. Currents elicited at 0 mV were plotted as a function of prepulse potential to allow estimation of the voltage at which 50% of the channels were inactivated (midpoint of inactivation or V1/2). Compounds were tested for their ability to inhibit hNav1.8 sodium channels by activating the channel with a 20 msec voltage step to 0 mV following an 8 second conditioning prepulse to the empirically determined V1/2. Compound effect (% inhibition) was determined by difference in current amplitude before and after application of test compounds. For ease of comparison, “estimated IC50” values were calculated from single point electrophysiology data by the following equation, (tested concentration, uM)×(100-% inhibition/% inhibition). Inhibition values<20% and >80% were excluded from the calculation.
In some cases electrophysiological assays were conducted with PatchXpress 7000 hardware and associated software (Molecular Devices Corp). All assay buffers and solutions were identical to those used in conventional whole-cell voltage clamp experiments described above. hNav1.8 cells were grown as above to 50%-80% confluency and harvested by trypsinization. Trypsinized cells were washed and resuspended in extracellular buffer at a concentration of 1×10^6 cells/ml. The onboard liquid handling facility of the PatchXpress was used for dispensing cells and application of test compounds. Determination of the voltage midpoint of inactivation was as described for conventional whole-cell recordings. Cells were then voltage-clamped to the empirically determined V1/2 and current was activated by a 20 msec voltage step to 0 mV.
Estimated IC50 values for the compounds of formula (I) exemplified above are as follows. […]

IC50	SMILES
827 nM	CC(C)(N)c1nc2cc(-c3cccc(Cl)c3C#N)ccc2[nH]1 [Example 73, 2-[2-(1-Amino-1-methylethyl)-1H-benzimidazol-5-yl]-6-chlorobenzonitrile]
1360 nM	CC(C)(N)c1nc2cc(-c3ccccc3C#N)ccc2[nH]1 [Example 74, 2-[2-(1-Amino-1-methylethyl)-1H-benzimidazol-5-yl]benzonitrile]
483 nM	CO[C@H](C)[C@H](N)c1nc2cc(-c3ccccc3C#N)ccc2[nH]1 [Example 77, 2-{2-[(1R,2R)-1-Amino-2-methoxypropyl]-1H-benzimidazol-5-yl}benzonitrile]
59.3 nM	C[C@@H](O)[C@H](N)c1nc2cc(C(C)(C)C)ccc2[nH]1 [Example 78, (1R,2R)-1-Amino-1-(5-tert-butyl-1H-benzimidazol-2-yl)propan-2-ol]
168 nM	CN[C@H](c1nc2cc(C(C)(C)C)ccc2[nH]1)[C@@H](C)O [Example 79, (1R,2R)-1-(5-tert-Butyl-1H-benzimidazol-2-yl)-1-(methylamino)propan-2-ol]
87.6 nM	CC(C)(C)c1ccc2[nH]c([C@](C)(N)CO)nc2c1 [Example 80, (2S)-2-Amino-2-(5-tert-butyl-1H-benzimidazol-2-yl)propan-1-ol]
82.8 nM	CC[C@H](N)c1nc2cc(-c3ccc(C#N)cc3)ccc2[nH]1 [Example 81, 4-{2-[(1S)-1-Aminopropyl]-1H-benzimidazol-5-yl}benzonitrile]
323 nM	N#Cc1ccc(-c2ccc3[nH]c([C@@H](N)CO)nc3c2)cc1 [Example 82, 4-{2-[(1R)-1-Amino-2-hydroxyethyl]-1H-benzimidazol-5-yl}benzonitrile]
872 nM	CO[C@H](C)[C@@H](N)c1nc2cc(C(C)(C)C)ccc2[nH]1 [Example 83, (1S,2R)-1-(5-tert-Butyl-1H-benzimidazol-2-yl)-2-methoxypropan-1-amine]
81.9 nM	CO[C@H](C)[C@H](N)c1nc2cc(-c3ccc(C#N)cc3Cl)ccc2[nH]1 [Example 84, 4-{2-[(1R,2R)-1-Amino-2-methoxypropyl]-1H-benzimidazol-5-yl}-3-chlorobenzonitrile]
111 nM	CO[C@H](C)[C@H](N)c1nc2cc(-c3ccc(C#N)cc3C(F)(F)F)ccc2[nH]1 [Example 86, 4-{2-[(1R,2R)-1-Amino-2-methoxypropyl]-1H-benzimidazol-5-yl}-3-(trifluoromethyl)-benzonitrile]
993 nM	C[C@@H](O)[C@H](N)c1nc2cc(-c3ccc(C#N)c(C#N)c3)ccc2[nH]1 [Example 88, 4-{2-[(1R,2R)-1-Amino-2-hydroxypropyl]-1H-benzimidazol-5-yl}benzene-1,2-dicarbonitrile]
18.7 nM	CO[C@H](C)[C@H](N)c1nc2cc(-c3ccc(C#N)cc3F)ccc2[nH]1 [Example 90, 4-{2-[(1R,2R)-1-Amino-2-methoxypropyl]-1H-benzimidazol-5-yl}-3-fluorobenzonitrile]
666 nM	CO[C@H](C)[C@H](N)c1nc2cc(-c3ccc(C#N)cc3)c(F)cc2[nH]1 [Example 91, 4-{2-[(1R,2R)-1-Amino-2-methoxypropyl]-6-fluoro-1H-benzimidazol-5-yl}benzonitrile]
17.5 nM	CO[C@H](C)[C@H](N)c1nc2cc(-c3ccc(C#N)cc3)ccc2[nH]1 [Example 92, 4-{2-[(1R,2R)-1-Amino-2-methoxypropyl]-1H-benzimidazol-5-yl}benzonitrile]
746 nM	CO[C@@H](C)[C@@H](N)c1nc2cc(-c3ccc(C#N)cc3)ccc2[nH]1 [Example 93, 4-{2-[(1S,2S)-1-Amino-2-methoxypropyl]-1H-benzimidazol-5-yl}benzonitrile]
1080 nM	CO[C@@H](C)[C@@H](N)c1nc2cc(C(C)(C)C)ccc2[nH]1 [Example 94, (1S,2S)-1-(5-tert-Butyl-1H-benzimidazol-2-yl)-2-methoxypropan-1-amine]
3310 nM	CC(C)c1ccc2[nH]c([C@@H](N)CC(N)=O)nc2c1 [Example 95, (3S)-3-Amino-3-[5-(propan-2-yl)-1H-benzimidazol-2-yl]propanamide]
188 nM	CO[C@H](C)[C@H](N)c1nc2cc(CC(C)(C)C)c(F)cc2[nH]1 [Example 96, (1R,2R)-1-[5-(2,2-Dimethylpropyl)-5-fluoro-1H-benzimidazol-2-yl]-2-methoxypropan-1-amine]
151 nM	CC[C@@H](N)c1nc2cc(C(C)(C)C)ccc2[nH]1 [Example 97, (1R)-1-(5-tert-Butyl-1H-benzimidazol-2-yl)propan-1-amine]
1350 nM	C[C@@H](O)[C@H](N)c1nc2c(F)c(-c3ccc(C#N)cc3)ccc2[nH]1 [Example 98, 4-{2-[(1R,2R)-1-Amino-2-hydroxypropyl]-4-fluoro-1H-benzimidazol-5-yl}benzonitrile]
2490 nM	C[C@@H](O)[C@H](N)c1nc2c(Cl)c(-c3ccc(C#N)cc3)ccc2[nH]1 [Example 99, 4-{2-[(1R,2R)-1-Amino-2-hydroxypropyl]-4-chloro-1H-benzimidazol-5-yl}benzonitrile]
82.5 nM	C[C@@H](O)[C@H](N)c1nc2cc(-c3ccc(C#N)cc3C(F)(F)F)ccc2[nH]1 [Example 100, 4-{2-[(1R,2R)-1-Amino-2-hydroxypropyl]-1H-benzimidazol-5-yl}-3-(trifluoromethyl)benzonitrile]
200 nM	C[C@@H](O)[C@H](N)c1nc2cc(-c3ccc(C#N)cc3F)ccc2[nH]1 [Example 101, 4-{2-[(1R,2R)-1-Amino-2-hydroxypropyl]-1H-benzimidazol-5-yl}-3-fluorobenzonitrile]
71 nM	CC(C)(C)c1ccc2[nH]c([C@@H](N)C(C)(C)O)nc2c1 [Example 102, (1R)-1-Amino-1-(5-tert-butyl-1H-benzimidazol-2-yl)-2-methylpropan-2-ol]
69.9 nM	[2H][13C]([2H])([2H])[C@@H](C(N)=O)[C@H](N)c1nc2cc(C(C)(C)C)ccc2[nH]1 [Example 105, (2R,3S)-3-Amino-3-(5-tert-butyl-1H-benzimidazol-2-yl)-2-(^13CD3-methyl)propanamide]
207 nM	CNC(=O)[C@H](C)[C@H](N)c1nc2cc(C(C)(C)C)ccc2[nH]1 [Example 108, (2R,3S)-3-Amino-3-(6-tert-butyl-1H-benzimidazol-2-yl)-N,2-dimethylpropanamide]
56.1 nM	C[C@@H](C(N)=O)[C@H](N)c1nc2cc(-c3ccc(C#N)c(F)c3)ccc2[nH]1 [Example 109, (2R,3S)-3-Amino-3-[5-(4-cyano-3-fluorophenyl)-1H-benzimidazol-2-yl]-2-methylpropanamide]

SMILES	IC50
CO[C@H](C)[C@H](N)c1nc2cc(-c3ccc(C#N)c(F)c3)ccc2[nH]1 [Example 85, 4-{2-[(1R,2R)-1-Amino-2-methoxypropyl]-1H-benzimidazol-5-yl}-2-fluorobenzonitrile]	10.5 nM
CO[C@H](C)[C@H](N)c1nc2cc(-c3cc(F)c(C#N)c(F)c3)ccc2[nH]1 [Example 87, 4-{2-[(1R,2R)-1-Amino-2-methoxypropyl]-1H-benzimidazol-5-yl}-2,6-difluorobenzonitrile]	1330 nM
C[C@@H](O)[C@H](N)c1nc2cc(-c3cc(F)c(C#N)c(F)c3)ccc2[nH]1 [Example 89, 4-{2-[(1R,2R)-1-Amino-2-hydroxypropyl]-1H-benzimidazol-5-yl}-2,6-difluorobenzonitrile]	2390 nM
C[C@H](OC(N)=O)[C@H](N)c1nc2cc(C(C)(C)C)ccc2[nH]1 [Example 106, (1R,2S)-1-Amino-1-(5-tert-butyl-1H-benzimidazol-2-yl)propan-2-yl carbamate]	35 nM
C[C@@H](OC(N)=O)[C@H](N)c1nc2cc(C(C)(C)C)ccc2[nH]1 [Example 107, (1R,2R)-1-Amino-1-(6-tert-butyl-1H-benzimidazol-2-yl)propan-2-yl carbamate]	356 nM
